Common to all, as to parameters: scale not given: the % may be the effect or the level left
Assay [1] has as its target Ephrin type-A receptor 5 (Homo sapiens) (UniProt P54756). The assay is described as follows: Inhibition of human EPHA5 assessed as enzyme activity at 1 uM using poly[Glu:Tyr] (4:1) as substrate preincubated for 20 mins followed by [gamma-33P]-ATP addition and measured after 120 mins by radiometric Hot-SpotSM Kinase assay relative to control.
Assay [2] concerns the target T1, Serine/threonine-protein kinase haspin (Homo sapiens) (UniProt Q8TF76).
T1 sequence (whole entry): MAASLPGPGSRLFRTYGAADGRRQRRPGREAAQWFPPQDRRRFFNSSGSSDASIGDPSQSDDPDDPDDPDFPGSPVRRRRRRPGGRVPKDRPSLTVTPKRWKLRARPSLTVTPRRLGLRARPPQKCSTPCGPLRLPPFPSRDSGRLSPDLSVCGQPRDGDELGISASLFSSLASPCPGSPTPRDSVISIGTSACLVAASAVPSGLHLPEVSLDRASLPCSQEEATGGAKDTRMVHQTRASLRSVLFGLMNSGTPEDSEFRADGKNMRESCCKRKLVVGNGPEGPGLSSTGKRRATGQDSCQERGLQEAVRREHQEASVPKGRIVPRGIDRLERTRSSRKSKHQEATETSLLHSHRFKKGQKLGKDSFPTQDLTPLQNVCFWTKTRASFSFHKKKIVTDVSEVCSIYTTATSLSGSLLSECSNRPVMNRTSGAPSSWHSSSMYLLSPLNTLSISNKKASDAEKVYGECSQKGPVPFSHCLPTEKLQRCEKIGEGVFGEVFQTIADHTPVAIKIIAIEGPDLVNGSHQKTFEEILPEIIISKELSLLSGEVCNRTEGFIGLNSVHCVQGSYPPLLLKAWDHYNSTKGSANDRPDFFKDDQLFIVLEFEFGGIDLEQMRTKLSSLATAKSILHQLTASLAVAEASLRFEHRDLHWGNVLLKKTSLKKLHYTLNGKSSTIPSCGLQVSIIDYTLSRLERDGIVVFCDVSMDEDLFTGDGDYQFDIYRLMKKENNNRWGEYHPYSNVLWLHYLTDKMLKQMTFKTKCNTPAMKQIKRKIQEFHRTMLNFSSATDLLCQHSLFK
In words: Inhibition of human Haspin assessed as enzyme activity at 1 uM using histone H3 as substrate preincubated for 20 mins followed by [gamma-33P]-ATP addition and measured after 120 mins by radiometric Hot-SpotSM Kinase assay relative to control.

Assay [3] addresses T2, Muscle, skeletal receptor tyrosine-protein kinase (Homo sapiens) (UniProt O15146).
T2 sequence (whole entry): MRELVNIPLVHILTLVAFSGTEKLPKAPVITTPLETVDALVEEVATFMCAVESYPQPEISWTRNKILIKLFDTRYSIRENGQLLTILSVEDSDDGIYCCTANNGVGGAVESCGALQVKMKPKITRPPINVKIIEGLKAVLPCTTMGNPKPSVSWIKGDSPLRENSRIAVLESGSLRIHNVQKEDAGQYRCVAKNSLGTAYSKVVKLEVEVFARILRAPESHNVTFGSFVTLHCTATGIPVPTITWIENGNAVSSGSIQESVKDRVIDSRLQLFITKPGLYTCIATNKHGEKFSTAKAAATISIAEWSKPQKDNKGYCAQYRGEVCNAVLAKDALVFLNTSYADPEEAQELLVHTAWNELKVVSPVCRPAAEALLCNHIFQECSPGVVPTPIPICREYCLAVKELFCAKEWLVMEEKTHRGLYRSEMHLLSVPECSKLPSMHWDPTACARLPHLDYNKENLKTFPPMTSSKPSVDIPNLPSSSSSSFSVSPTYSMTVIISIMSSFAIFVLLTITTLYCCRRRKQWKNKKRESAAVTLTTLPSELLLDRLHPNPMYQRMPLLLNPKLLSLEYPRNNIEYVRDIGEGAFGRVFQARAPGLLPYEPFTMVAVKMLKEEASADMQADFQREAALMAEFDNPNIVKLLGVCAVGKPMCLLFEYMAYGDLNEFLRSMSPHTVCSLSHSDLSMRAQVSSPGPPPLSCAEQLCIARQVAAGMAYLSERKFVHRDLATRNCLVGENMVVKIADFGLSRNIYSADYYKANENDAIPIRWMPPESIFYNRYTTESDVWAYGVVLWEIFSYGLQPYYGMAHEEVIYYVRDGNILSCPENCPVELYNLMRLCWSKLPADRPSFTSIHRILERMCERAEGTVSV
In words: Inhibition of human MUSK assessed as enzyme activity at 1 uM using myelin basic protein as substrate preincubated for 20 mins followed by [gamma-33P]-ATP addition and measured after 120 mins by radiometric Hot-SpotSM Kinase assay relative to control.

Assay [4] has as its target Phosphorylase b kinase gamma catalytic chain, skeletal muscle/heart isoform (Homo sapiens) (UniProt Q16816). The assay is described as follows: Inhibition of human PHKg1 assessed as enzyme activity at 1 uM using KKLNRTLSFAEPG as substrate preincubated for 20 mins followed by [gamma-33P]-ATP addition and measured after 120 mins by radiometric Hot-SpotSM Kinase assay relative to control.

For the next assay, the species on record is Homo sapiens. The assay is described as follows: Inhibition of human PKA assessed as enzyme activity at 1 uM using LCGRTGRRNSI as substrate preincubated for 20 mins followed by [gamma-33P]-ATP addition and measured after 120 mins by radiometric Hot-SpotSM Kinase assay relative to control.
For assay [5], the target named is T3, Serine/threonine-protein kinase Sgk2 (Homo sapiens) (UniProt Q9HBY8).
T3 sequence (whole entry): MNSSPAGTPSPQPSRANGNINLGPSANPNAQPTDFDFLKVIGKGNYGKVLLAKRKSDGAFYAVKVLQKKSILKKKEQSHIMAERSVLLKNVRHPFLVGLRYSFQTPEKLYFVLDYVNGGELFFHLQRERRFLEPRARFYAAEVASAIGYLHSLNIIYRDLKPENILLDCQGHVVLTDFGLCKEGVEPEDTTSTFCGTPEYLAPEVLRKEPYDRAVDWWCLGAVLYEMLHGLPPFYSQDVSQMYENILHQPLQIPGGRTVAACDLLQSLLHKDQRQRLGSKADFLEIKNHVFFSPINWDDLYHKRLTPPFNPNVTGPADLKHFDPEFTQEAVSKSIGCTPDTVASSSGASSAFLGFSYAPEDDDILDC
In words: Inhibition of human SGK2 assessed as enzyme activity at 1 uM using KGSGSGRPRTSSFAEG as substrate preincubated for 20 mins followed by [gamma-33P]-ATP addition and measured after 120 mins by radiometric Hot-SpotSM Kinase assay relative to control.

For assay [6], the target named is Serine/threonine-protein kinase 38 (Homo sapiens) (UniProt Q15208). In words: Inhibition of human STK38 assessed as enzyme activity at 1 uM using KKRNRRLSVA as substrate preincubated for 20 mins followed by [gamma-33P]-ATP addition and measured after 120 mins by radiometric Hot-SpotSM Kinase assay relative to control.
Sequence of Serine/threonine-protein kinase 38 (Homo sapiens) (Q15208 2-465 limits assumed): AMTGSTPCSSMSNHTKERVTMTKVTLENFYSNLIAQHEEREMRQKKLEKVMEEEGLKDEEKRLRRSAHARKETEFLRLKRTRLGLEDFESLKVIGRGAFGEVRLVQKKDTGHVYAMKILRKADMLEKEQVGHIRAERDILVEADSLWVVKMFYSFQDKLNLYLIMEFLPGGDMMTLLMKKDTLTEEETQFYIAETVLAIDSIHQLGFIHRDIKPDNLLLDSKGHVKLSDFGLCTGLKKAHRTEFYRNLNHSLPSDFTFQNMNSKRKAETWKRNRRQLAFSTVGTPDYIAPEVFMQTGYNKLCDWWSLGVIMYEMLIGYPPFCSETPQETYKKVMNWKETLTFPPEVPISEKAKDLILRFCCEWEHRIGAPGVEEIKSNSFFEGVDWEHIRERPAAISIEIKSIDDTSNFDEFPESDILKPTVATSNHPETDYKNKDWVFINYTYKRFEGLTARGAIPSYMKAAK

Drawing on ChEMBL document CHEMBL5715954, “Silencing c-Myc translation as a therapeutic strategy through targeting PI3Kδ and CK1ε in hematological malignancies” (Blood, 2017), this text covers Activity for three compounds.

Sequence of Ephrin type-A receptor 5 (Homo sapiens) (P54756 whole entry): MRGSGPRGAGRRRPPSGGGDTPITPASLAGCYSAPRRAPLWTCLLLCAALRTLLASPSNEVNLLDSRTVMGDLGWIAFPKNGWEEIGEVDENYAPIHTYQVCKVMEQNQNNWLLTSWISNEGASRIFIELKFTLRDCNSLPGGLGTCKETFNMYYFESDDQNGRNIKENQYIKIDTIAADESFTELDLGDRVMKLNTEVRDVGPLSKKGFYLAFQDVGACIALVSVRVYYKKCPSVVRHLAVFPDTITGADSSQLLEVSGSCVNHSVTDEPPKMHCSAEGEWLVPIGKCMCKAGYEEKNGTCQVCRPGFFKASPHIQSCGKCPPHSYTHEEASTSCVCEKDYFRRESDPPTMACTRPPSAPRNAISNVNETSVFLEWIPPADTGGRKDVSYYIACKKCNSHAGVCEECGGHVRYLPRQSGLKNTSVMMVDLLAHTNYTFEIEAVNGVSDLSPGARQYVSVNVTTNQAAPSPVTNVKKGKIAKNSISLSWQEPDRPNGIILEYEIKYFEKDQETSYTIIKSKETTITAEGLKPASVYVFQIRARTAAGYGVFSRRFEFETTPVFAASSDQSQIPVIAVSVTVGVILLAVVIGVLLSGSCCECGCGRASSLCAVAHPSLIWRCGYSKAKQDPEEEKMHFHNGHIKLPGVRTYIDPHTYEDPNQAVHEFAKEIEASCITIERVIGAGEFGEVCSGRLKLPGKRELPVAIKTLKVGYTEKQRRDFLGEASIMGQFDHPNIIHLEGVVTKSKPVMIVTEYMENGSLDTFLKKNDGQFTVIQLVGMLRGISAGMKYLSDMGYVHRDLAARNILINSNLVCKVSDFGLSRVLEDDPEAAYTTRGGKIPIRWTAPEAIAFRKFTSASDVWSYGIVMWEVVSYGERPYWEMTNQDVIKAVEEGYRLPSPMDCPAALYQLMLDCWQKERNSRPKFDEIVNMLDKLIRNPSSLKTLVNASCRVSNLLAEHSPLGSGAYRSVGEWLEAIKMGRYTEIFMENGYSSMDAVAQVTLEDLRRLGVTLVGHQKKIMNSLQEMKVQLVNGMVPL
Sequence of Phosphorylase b kinase gamma catalytic chain, skeletal muscle/heart isoform (Homo sapiens) (Q16816 whole entry, looked up, canonical isoform): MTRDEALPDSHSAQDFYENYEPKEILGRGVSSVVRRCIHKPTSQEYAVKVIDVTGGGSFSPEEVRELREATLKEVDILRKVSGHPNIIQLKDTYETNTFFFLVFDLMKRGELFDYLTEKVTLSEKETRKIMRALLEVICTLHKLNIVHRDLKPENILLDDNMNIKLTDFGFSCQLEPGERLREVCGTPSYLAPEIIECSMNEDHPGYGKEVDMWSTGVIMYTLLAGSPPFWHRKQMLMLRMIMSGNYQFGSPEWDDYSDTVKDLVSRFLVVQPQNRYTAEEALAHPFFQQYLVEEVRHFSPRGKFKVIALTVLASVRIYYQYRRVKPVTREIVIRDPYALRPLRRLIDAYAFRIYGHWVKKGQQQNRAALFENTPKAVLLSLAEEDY

For the compound `C[C@H](Nc1ncnc2nc[nH]c12)c1cc2cccc(Cl)c2c(=O)n1-c1ccccc1`, the Activity in assay [1] came out at 104%; in assay [2], 96.5%; in assay [3], 95.8%; in assay [4] it was 98.4%; in the assay listed under Homo sapiens, 95.5%; in assay [5], 98.8%. The Activity in assay [6] was determined as 86.5%.
Consider `CC[C@H](Nc1ncnc2[nH]cnc12)c1nc2cccc(F)c2c(=O)n1-c1ccccc1`, for which the Activity in assay [1] turned out to be 105%; in assay [2], 95.5%; in assay [3], 94.4%; in assay [4], 99%; in the assay filed under Homo sapiens, 102%; in assay [5], 91.9%. The Activity in assay [6] was 94.5%.
For `CC(C)Oc1ccc(-c2nn([C@@H](C)c3oc4ccc(F)cc4c(=O)c3-c3cccc(F)c3)c3ncnc(N)c23)cc1F` [UMBRALISIB], the Activity amounted to 103% in assay [1]; 93.7% in assay [2]; 97.5% in assay [3]; 95.4% in assay [4]; 91.4% in the assay listed under Homo sapiens; 90.9% in assay [5]. For the same compound, the Activity in assay [6] turned out to be 91.4%.
